According to the supplement of paper PMC10702517:
± gives the standard deviation.

Legend:
[1] = chemical recovery from spiked human plasma; higher = better extraction; details: pooled human plasma
[2] = chemical recovery into PDMS from spiked human plasma; higher = better extraction; details: pooled human plasma, extraction method: PES with PDMS
[3] = chemical recovery by SPE of plasma after PDMS sampling; higher = better extraction; details: pooled human plasma, extraction method: HLB SPE of plasma after PES
[4] = extraction method: SPE only (HLB 96-well), PES comparison experiment
[5] = extraction method: solvent precipitation (ACN + hexane)
[6] = extraction method: SPE only (HLB 96-well)
[7] = extraction method: PES+SPE (3 d PDMS equilibration then HLB SPE)
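For chemical recovery by SPE of plasma after PDMS sampling in this document: over 400 spiked chemicals quantified by LC-HRMS or GC-HRMS via internal standard calibration, recovery relative to spike mix added to unspiked plasma extract to correct matrix effects.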

CN(Cc1nc2c(N)nc(N)nc2nc1O)c1ccc(C(=O)N[C@@H](CCC(=O)O)C(=O)O)cc1 [7-Hydroxymethotrexate]
chemical recovery [1, 4]: 37.4 ± 4.5%
chemical recovery into PDMS ([2]; equilibration time (d): 6): 0.0138 ± 0.079%
chemical recovery by SPE of plasma ([3]; equilibration time (d): 1): 38.5 ± 7.5%
chemical recovery by SPE of plasma ([3]; equilibration time (d): 3): 45.7 ± 5.5%
chemical recovery by SPE of plasma ([3]; equilibration time (d): 6): 40.3 ± 0.48%

COC(=O)[C@H](c1ccccc1Cl)N1CCc2sccc2C1 [Clopidogrel]
chemical recovery [1, 4]: 39.3 ± 7.1%
chemical recovery [1, 5]: 78.1 ± 6.1%
chemical recovery into PDMS ([2]; equilibration time (d): 1): 26.7 ± 8.6%
chemical recovery into PDMS ([2]; equilibration time (d): 3): 25.5 ± 7.8%
chemical recovery into PDMS ([2]; equilibration time (d): 6): 28.3 ± 5.4%
chemical recovery by SPE of plasma ([3]; equilibration time (d): 1): 0.677 ± 0.17%
chemical recovery by SPE of plasma ([3]; equilibration time (d): 3): 1.02 ± 0.078%
chemical recovery by SPE of plasma ([3]; equilibration time (d): 6): 0.597 ± 0.026%

CCN(CC)c1nc(C)cc(OP(=S)(OC)OC)n1 [Pirimiphos-methyl]
chemical recovery [1, 6]: 36.4 ± 3.4%
chemical recovery [1, 4]: 42.9 ± 8.2%
chemical recovery [1, 5]: 68.8 ± 5.2%
chemical recovery into PDMS ([2]; equilibration time (d): 1): 29.7 ± 4.3%
chemical recovery into PDMS ([2]; equilibration time (d): 3): 33.5 ± 3.9%
chemical recovery into PDMS ([2]; equilibration time (d): 6): 32.1 ± 0.42%
chemical recovery by SPE of plasma ([3]; equilibration time (d): 1): 0.602 ± 0.13%
chemical recovery by SPE of plasma ([3]; equilibration time (d): 3): 0.453 ± 0.41%
chemical recovery by SPE of plasma ([3]; equilibration time (d): 6): 0.275 ± 0.24%

CC(=O)[C@@]1(O)CC[C@H]2[C@@H]3C=C(Cl)C4=CC(=O)[C@@H]5C[C@@H]5[C@]4(C)[C@H]3CC[C@@]21C [Cyproterone]
chemical recovery [1, 4]: 44.8 ± 7%
chemical recovery into PDMS ([2]; equilibration time (d): 1): 34.4 ± 3.3%
chemical recovery into PDMS ([2]; equilibration time (d): 3): 39 ± 1.6%
chemical recovery into PDMS ([2]; equilibration time (d): 6): 39.5 ± 1.2%
chemical recovery by SPE of plasma ([3]; equilibration time (d): 1): 7.2 ± 0.97%
chemical recovery by SPE of plasma ([3]; equilibration time (d): 3): 4.61 ± 0.52%
chemical recovery by SPE of plasma ([3]; equilibration time (d): 6): 2.35 ± 0.21%

O=[N+]([O-])/N=C1\NCCN1Cc1ccc(Cl)nc1 [Imidacloprid]
chemical recovery [1, 7]: 47.6 ± 4%
chemical recovery [1, 6]: 39.9 ± 8%
chemical recovery [1, 4]: 53.3 ± 7.2%
chemical recovery [1, 5]: 77.5 ± 3.8%
chemical recovery into PDMS ([2]; equilibration time (d): 1): 3.82 ± 0.41%
chemical recovery into PDMS ([2]; equilibration time (d): 3): 6.8 ± 1.8%
chemical recovery into PDMS ([2]; equilibration time (d): 6): 7.69 ± 1.4%
chemical recovery by SPE of plasma ([3]; equilibration time (d): 1): 49 ± 6.3%
chemical recovery by SPE of plasma ([3]; equilibration time (d): 3): 50.2 ± 4.6%
chemical recovery by SPE of plasma ([3]; equilibration time (d): 6): 43.2 ± 2.7%

CCc1cccc(C)c1N(C(=O)CCl)C(C)COC (stereo not drawn) [Metolachlor]
chemical recovery [1, 7]: 37.9 ± 5.3%
chemical recovery [1, 6]: 38.1 ± 1.9%
chemical recovery [1, 4]: 47.6 ± 6.7%
chemical recovery into PDMS ([2]; equilibration time (d): 1): 37.3 ± 1.4%
chemical recovery into PDMS ([2]; equilibration time (d): 3): 40.7 ± 3.2%
chemical recovery into PDMS ([2]; equilibration time (d): 6): 40.6 ± 1.1%
chemical recovery by SPE of plasma ([3]; equilibration time (d): 1): 0.504 ± 0.043%
chemical recovery by SPE of plasma ([3]; equilibration time (d): 3): 0.63 ± 0.12%
chemical recovery by SPE of plasma ([3]; equilibration time (d): 6): 0.323 ± 0.0041%

CN(C)c1ccc(C(=O)c2ccc(N(C)C)cc2)cc1 [Michler's ketone]
chemical recovery [1, 6]: 34.4 ± 1.9%
chemical recovery into PDMS ([2]; equilibration time (d): 1): 17.2 ± 9.7%
chemical recovery into PDMS ([2]; equilibration time (d): 3): 15.5 ± 10%
chemical recovery into PDMS ([2]; equilibration time (d): 6): 16.7 ± 4.2%
chemical recovery by SPE of plasma ([3]; equilibration time (d): 1): 1.38 ± 0.41%
chemical recovery by SPE of plasma ([3]; equilibration time (d): 3): 1.1 ± 0.12%
chemical recovery by SPE of plasma ([3]; equilibration time (d): 6): 0.502 ± 0.091%

c1ccc2c(c1)[nH]c1cnccc12 [Norharmane]
chemical recovery [1, 7]: 25.1 ± 5.9%
chemical recovery [1, 6]: 39.6 ± 7.7%
chemical recovery [1, 4]: 48 ± 6.7%
chemical recovery [1, 5]: 77.7 ± 5.3%
chemical recovery into PDMS ([2]; equilibration time (d): 1): 24.8 ± 1.2%
chemical recovery into PDMS ([2]; equilibration time (d): 3): 28.3 ± 0.84%
chemical recovery into PDMS ([2]; equilibration time (d): 6): 29 ± 1.6%
chemical recovery by SPE of plasma ([3]; equilibration time (d): 1): 3.67 ± 0.43%
chemical recovery by SPE of plasma ([3]; equilibration time (d): 3): 2.75 ± 0.47%
chemical recovery by SPE of plasma ([3]; equilibration time (d): 6): 1.79 ± 0.061%

CC1CN(C2CCCCCCCCCCC2)CC(C)O1 (stereo not drawn) [Dodemorph]
chemical recovery [1, 6]: 29 ± 0.98%
chemical recovery [1, 4]: 44.3 ± 4.7%
chemical recovery [1, 5]: 73 ± 8.6%
chemical recovery into PDMS ([2]; equilibration time (d): 1): 1.2 ± 0.66%
chemical recovery into PDMS ([2]; equilibration time (d): 3): 1.32 ± 1%
chemical recovery into PDMS ([2]; equilibration time (d): 6): 1.41 ± 0.46%
chemical recovery by SPE of plasma ([3]; equilibration time (d): 1): 0.166 ± 0.13%
chemical recovery by SPE of plasma ([3]; equilibration time (d): 3): 0.11 ± 0.031%
chemical recovery by SPE of plasma ([3]; equilibration time (d): 6): 0.044 ± 0.0048%

CCCC1O[C@@H]2C[C@H]3[C@@H]4CCC5=CC(=O)C=C[C@]5(C)[C@H]4[C@@H](O)C[C@]3(C)[C@]2(C(=O)CO)O1 (stereo partly drawn) [Budesonide]
chemical recovery [1, 4]: 50.5 ± 7%
chemical recovery into PDMS ([2]; equilibration time (d): 1): 4.21 ± 7.3%
chemical recovery into PDMS ([2]; equilibration time (d): 6): 22.6 ± 1.5%
chemical recovery by SPE of plasma ([3]; equilibration time (d): 1): 35.3 ± 6.4%
chemical recovery by SPE of plasma ([3]; equilibration time (d): 6): 25 ± 2.6%

CCCCCCCCc1cccc(Nc2ccccc2)c1CCCCCCCC [Dioctyldiphenylamine]
chemical recovery [1, 6]: 7.45 ± 4.7%
chemical recovery into PDMS ([2]; equilibration time (d): 1): 3.85 ± 3.4%
chemical recovery into PDMS ([2]; equilibration time (d): 3): 5.97 ± 3%
chemical recovery into PDMS ([2]; equilibration time (d): 6): 6.08 ± 2.5%
chemical recovery by SPE of plasma ([3]; equilibration time (d): 1): 0.988 ± 0.82%
chemical recovery by SPE of plasma ([3]; equilibration time (d): 3): 0.992 ± 0.41%
chemical recovery by SPE of plasma ([3]; equilibration time (d): 6): 0.785 ± 0.37%

COc1ccc(C(=O)c2ccccc2)c(O)c1 [Benzophenone-3]
chemical recovery [1, 7]: 41.3 ± 8.9%
chemical recovery [1, 6]: 28.9 ± 1.7%
chemical recovery [1, 4]: 33.1 ± 5.5%
chemical recovery [1, 5]: 65 ± 3.6%
chemical recovery into PDMS ([2]; equilibration time (d): 1): 35.5 ± 1.5%
chemical recovery into PDMS ([2]; equilibration time (d): 3): 38.2 ± 2.1%
chemical recovery into PDMS ([2]; equilibration time (d): 6): 38.6 ± 4.5%
chemical recovery by SPE of plasma ([3]; equilibration time (d): 1): 1.5 ± 0.48%
chemical recovery by SPE of plasma ([3]; equilibration time (d): 3): 1.88 ± 0.31%
chemical recovery by SPE of plasma ([3]; equilibration time (d): 6): 1.41 ± 0.17%

c1cc2c3c(c1)ccc1cccc(c13)C2 [4H-Cyclopenta(def)phenanthrene]
chemical recovery [1, 4]: 19.6 ± 3.7%
chemical recovery into PDMS ([2]; equilibration time (d): 1): 94.4 ± 32%
chemical recovery into PDMS ([2]; equilibration time (d): 3): 93.2 ± 14%
chemical recovery into PDMS ([2]; equilibration time (d): 6): 108 ± 43%
chemical recovery by SPE of plasma ([3]; equilibration time (d): 1): 1.81 ± 1.4%
chemical recovery by SPE of plasma ([3]; equilibration time (d): 3): 2 ± 0.34%
chemical recovery by SPE of plasma ([3]; equilibration time (d): 6): 1.85 ± 0.12%
